Measured values as given in PubChem BioAssay AID192 (DTP/NCI, 2004).
“And” between values parts separate entries of the source, which are not always exact repeats. Identical values can stand only once. Toxic doses and inconclusive results are not listed.

Test system: BDF1 mice, B16 melanoma ip, median survival T/C
Assay: NCI In Vivo Anticancer Drug Screen. Data for tumor model B16 Melanoma (intraperitoneal) in B6D2F1 (BDF1) mice
Details: endpoint: median survival time, higher = longer survival
Method in brief: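 Read-out: survival or tumor size, given as treated/control ratio. Controls received vehicle only; animals bore transplantable tumors.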

[1] = dose: 1.56 mg/kg/injection, schedule: Q01DX009 (ip), vehicle: saline with Tween-80
[2] = dose: 3.13 mg/kg/injection, schedule: Q01DX009 (ip), vehicle: saline with Tween-80
[3] = dose: 6.25 mg/kg/injection, schedule: Q01DX009 (ip), vehicle: saline with Tween-80
[4] = dose: 25.0 mg/kg/injection, schedule: Q01DX009 (ip), vehicle: saline with Tween-80
[5] = dose: 100.0 mg/kg/injection, schedule: Q01DX009 (ip), vehicle: Klucel (hydroxypropylcellulose) (HPC)
[6] = dose: 200.0 mg/kg/injection, schedule: Q01DX009 (ip), vehicle: Klucel (hydroxypropylcellulose) (HPC)
[7] = dose: 400.0 mg/kg/injection, schedule: Q01DX009 (ip), vehicle: Klucel (hydroxypropylcellulose) (HPC)
[8] = dose: 6.25 mg/kg/injection, schedule: Q01DX009 (ip), vehicle: Klucel (hydroxypropylcellulose) (HPC)
[9] = dose: 12.5 mg/kg/injection, schedule: Q01DX009 (ip), vehicle: Klucel (hydroxypropylcellulose) (HPC)
[10] = dose: 25.0 mg/kg/injection, schedule: Q01DX009 (ip), vehicle: Klucel (hydroxypropylcellulose) (HPC)
[11] = dose: 50.0 mg/kg/injection, schedule: Q01DX009 (ip), vehicle: Klucel (hydroxypropylcellulose) (HPC)
[12] = dose: 50.0 mg/kg/injection, schedule: Q01DX009 (ip), vehicle: saline with Tween-80
[13] = dose: 100.0 mg/kg/injection, schedule: Q01DX009 (ip), vehicle: saline with Tween-80
[14] = dose: 200.0 mg/kg/injection, schedule: Q01DX009 (ip), vehicle: saline with Tween-80
[15] = dose: 50.0 mg/kg/injection, schedule: Q04DX003 (ip), vehicle: saline with Tween-80

Q: How did the T/C [1] turn out when `CC(=O)OC1CCC2(C)C(CCC3C2C(=O)C(OC(C)=O)C2(C)C3CC3OC4(CCC(C)CO4)C(C)C32)C1` (centres undefined) was run?
A: 98 % of control

Q: What about the T/C [2] of the same compound?
A: 108 % of control

Q: And the T/C [3]?
A: 91 % of control and 93 % of control

Q: And the T/C [4]?
A: 89 % of control

Q: Which results are given for `N#CC(CC(=O)c1ccc2c(c1)OCO2)c1ccc2c(c1)OCO2` (centres undefined)?
A: T/C [5]: 105 % of control; T/C [6]: 101 % of control; T/C [7]: 94 % of control

Q: For `Nc1c(Cl)c(Cl)nc(C(=O)O)c1Cl`, which T/C [8] is on record?
A: 96 % of control

Q: And the T/C [9]?
A: 108 % of control

Q: And the T/C [10]?
A: 108 % of control

Q: And the T/C (dose: 25.0 mg/kg/injection, schedule: Q02DX009 (ip), vehicle: Klucel (hydroxypropylcellulose) (HPC))?
A: 95 % of control

Q: What about the T/C [11] of the same compound?
A: 96 % of control

Q: And the T/C (dose: 50.0 mg/kg/injection, schedule: Q02DX009 (ip), vehicle: Klucel (hydroxypropylcellulose) (HPC))?
A: 91 % of control

Q: And the T/C (dose: 50.0 mg/kg/injection, schedule: Q02DX009 (ip), vehicle: other)?
A: 95 % of control

Q: And the T/C [5]?
A: 102 % of control

Q: And the T/C (dose: 100.0 mg/kg/injection, schedule: Q02DX009 (ip), vehicle: other)?
A: 86 % of control

Q: What about the T/C [6] of the same compound?
A: 98 % of control

Q: For `NC(=S)N/N=C/c1ccc(OC(=O)COc2ccc(Cl)cc2)cn1`, which T/C [4] is on record?
A: 111 % of control

Q: And the T/C [12]?
A: 116 % of control

Q: And the T/C [13]?
A: 117 % of control

Q: `CCOC(=O)C(Cl)CCl` (centres undefined) was tested. Which T/C [11] did it give?
A: 100 % of control

Q: What about the T/C [5] of the same compound?
A: 100 % of control

Q: Which results are given for `Clc1ccc(C(c2ccccc2Cl)C(Cl)Cl)cc1` (centres undefined)?
A: T/C [12]: 95 % of control; T/C [13]: 95 % of control; T/C [14]: 90 % of control

Q: Which results are given for `CC(C)CCCCCCCCCCCCC(=O)NCC(=O)NC1C(O)C(O)C(Nc2ncnc3nc[nH]c23)OC1C(O)CO` (centres undefined)?
A: T/C (dose: 0.25 mg/kg/injection, schedule: Q01DX009 (ip), vehicle: Klucel (hydroxypropylcellulose) (HPC)): 114 % of control; T/C (dose: 1.0 mg/kg/injection, schedule: Q01DX009 (ip), vehicle: saline): 151 % of control; T/C (dose: 62.5 micrograms/kg/injection, schedule: Q01DX009 (ip), vehicle: saline): 98 % of control; T/C (dose: 125.0 micrograms/kg/injection, schedule: Q01DX009 (ip), vehicle: saline): 98 % of control; T/C (dose: 250.0 micrograms/kg/injection, schedule: Q01DX009 (ip), vehicle: saline): 98 % of control; T/C (dose: 500.0 micrograms/kg/injection, schedule: Q01DX009 (ip), vehicle: saline): 107 % of control

Q: With `N#CC1CS(=O)(=O)C1` as the compound, how does the T/C (dose: 25.0 mg/kg/injection, schedule: Q04DX003 (ip), vehicle: saline with Tween-80) read?
A: 104 % of control

Q: What about the T/C [15] of the same compound?
A: 98 % of control

Q: And the T/C (dose: 100.0 mg/kg/injection, schedule: Q04DX003 (ip), vehicle: saline with Tween-80)?
A: 99 % of control and 113 % of control

Q: With `O=C1C(=O)c2ccccc2-c2ccccc21` as the compound, how does the T/C [1] read?
A: 100 % of control

Q: What about the T/C [2] of the same compound?
A: 89 % of control

Q: And the T/C [8]?
A: 102 % of control

Q: What about the T/C [3] of the same compound?
A: 97 % of control

Q: What about the T/C [9] of the same compound?
A: 101 % of control

Q: And the T/C (dose: 12.5 mg/kg/injection, schedule: Q01DX009 (ip), vehicle: saline with Tween-80)?
A: 100 % of control

Q: What about the T/C (dose: 12.5 mg/kg/injection, schedule: Q04DX003 (ip), vehicle: Klucel (hydroxypropylcellulose) (HPC)) of the same compound?
A: 98 % of control

Q: What about the T/C [10] of the same compound?
A: 104 % of control

Q: And the T/C (dose: 25.0 mg/kg/injection, schedule: Q04DX003 (ip), vehicle: Klucel (hydroxypropylcellulose) (HPC))?
A: 89 % of control

Q: What about the T/C [11] of the same compound?
A: 109 % of control

Q: And the T/C (dose: 50.0 mg/kg/injection, schedule: Q04DX003 (ip), vehicle: Klucel (hydroxypropylcellulose) (HPC))?
A: 98 % of control

Q: And the T/C [15]?
A: 166 % of control

Q: And the T/C (dose: 100.0 mg/kg/injection, schedule: Q04DX003 (ip), vehicle: Klucel (hydroxypropylcellulose) (HPC))?
A: 89 % of control

Q: `COc1cccc(CNc2ccc(C)cc2C)c1OC` was tested. Which T/C [5] did it give?
A: 96 % of control

Q: And the T/C [6]?
A: 103 % of control

Q: And the T/C [7]?
A: 96 % of control

Q: `Cc1cc(NC(=O)NCc2ccc(N3C(N)=NC(N)=NC3(C)C)cc2)ccc1S(=O)(=O)F` was tested. Which T/C (dose: 25.0 mg/kg/injection, schedule: Q04DX003 (ip), vehicle: saline) did it give?
A: 97 % of control

Q: What about the T/C (dose: 50.0 mg/kg/injection, schedule: Q04DX003 (ip), vehicle: saline) of the same compound?
A: 109 % of control

Q: And the T/C (dose: 400.0 mg/kg/injection, schedule: Q04DX003 (ip), vehicle: saline)?
A: 122 % of control

Q: For `C[C@H]1CCC/C=C/[C@@H]2C[C@H](O)C[C@H]2[C@H](O)/C=C/C(=O)O1`, which T/C (dose: 2.5 mg/kg/injection, schedule: Q01DX009 (ip), vehicle: Klucel (hydroxypropylcellulose) (HPC)) is on record?
A: 116 % of control

Q: What about the T/C (dose: 5.0 mg/kg/injection, schedule: Q01DX009 (ip), vehicle: Klucel (hydroxypropylcellulose) (HPC)) of the same compound?
A: 104 % of control

Q: What about the T/C (dose: 10.0 mg/kg/injection, schedule: Q01DX009 (ip), vehicle: Klucel (hydroxypropylcellulose) (HPC)) of the same compound?
A: 103 % of control

Q: `O=C1C(Br)C2CCC1C2C(=O)O` (centres undefined) was tested. Which T/C [13] did it give?
A: 111 % of control

Q: And the T/C [14]?
A: 94 % of control

Q: And the T/C (dose: 400.0 mg/kg/injection, schedule: Q01DX009 (ip), vehicle: saline with Tween-80)?
A: 89 % of control

Q: With `CN(Cc1cnc2nc(N)nc(N)c2n1)c1ccc(C(=O)N[C@@H](CCC(=O)O)C(=O)O)cc1` as the compound, how does the T/C (dose: 0.25 mg/kg/injection, schedule: Q01DX009 (ip), vehicle: saline) read?
A: 102 % of control

Q: And the T/C (dose: 0.25 mg/kg/injection, schedule: Q01DX017 (ip), vehicle: saline)?
A: 107 % of control

Q: And the T/C (dose: 0.37 mg/kg/injection, schedule: Q01DX009 (ip), vehicle: sodium bicarbonate)?
A: 93 % of control and 103 % of control

Q: What about the T/C (dose: 0.5 mg/kg/injection, schedule: Q01DX009 (ip), vehicle: sodium bicarbonate) of the same compound?
A: 92 % of control and 103 % of control (2×)

Q: And the T/C (dose: 0.5 mg/kg/injection, schedule: Q01DX017 (ip), vehicle: saline)?
A: 104 % of control

Q: And the T/C (dose: 0.75 mg/kg/injection, schedule: Q01DX009 (ip), vehicle: sodium bicarbonate)?
A: 104 % of control and 105 % of control

Q: What about the T/C (dose: 1.0 mg/kg/injection, schedule: Q01DX017 (ip), vehicle: saline) of the same compound?
A: 111 % of control

Q: And the T/C (dose: 1.5 mg/kg/injection, schedule: Q01DX009 (ip), vehicle: saline)?
A: 92 % of control

Q: What about the T/C (dose: 1.5 mg/kg/injection, schedule: Q01DX009 (ip), vehicle: sodium bicarbonate) of the same compound?
A: 98 % of control and 106 % of control

Q: And the T/C (dose: 2.0 mg/kg/injection, schedule: Q01DX017 (ip), vehicle: saline)?
A: 88 % of control

Q: And the T/C (dose: 2.0 mg/kg/injection, schedule: Q04DX005 (ip), vehicle: saline)?
A: 107 % of control

Q: And the T/C (dose: 3.0 mg/kg/injection, schedule: Q01DX009 (ip), vehicle: sodium bicarbonate)?
A: 94 % of control and 100 % of control

Q: What about the T/C (dose: 4.0 mg/kg/injection, schedule: Q04DX003 (ip), vehicle: saline) of the same compound?
A: 113 % of control

Q: And the T/C (dose: 4.0 mg/kg/injection, schedule: Q04DX005 (ip), vehicle: saline)?
A: 109 % of control

Q: What about the T/C (dose: 6.0 mg/kg/injection, schedule: Q01DX009 (ip), vehicle: sodium bicarbonate) of the same compound?
A: 90 % of control

Q: What about the T/C (dose: 8.0 mg/kg/injection, schedule: Q04DX003 (ip), vehicle: saline) of the same compound?
A: 109 % of control

Q: What about the T/C (dose: 8.0 mg/kg/injection, schedule: Q04DX005 (ip), vehicle: saline) of the same compound?
A: 104 % of control

Q: And the T/C (dose: 16.0 mg/kg/injection, schedule: Q04DX003 (ip), vehicle: saline)?
A: 109 % of control

Q: What about the T/C (dose: 16.0 mg/kg/injection, schedule: Q04DX005 (ip), vehicle: saline) of the same compound?
A: 97 % of control

Q: What about the T/C (dose: 32.0 mg/kg/injection, schedule: Q01DX001 (ip), vehicle: saline) of the same compound?
A: 121 % of control

Q: What about the T/C (dose: 32.0 mg/kg/injection, schedule: Q04DX003 (ip), vehicle: saline) of the same compound?
A: 106 % of control

Q: What about the T/C (dose: 128.0 mg/kg/injection, schedule: Q01DX001 (ip), vehicle: saline) of the same compound?
A: 123 % of control

Q: How did the T/C [12] turn out when `CN(C)S(=O)(=O)C(C)(C)c1ccccc1` was run?
A: 90 % of control

Q: And the T/C [13]?
A: 93 % of control

Q: And the T/C [14]?
A: 95 % of control

Q: With `COc1cc(C2C3=C(CC(C)(C)CC3=O)N(CC(=O)O)C3=C2C(=O)CC(C)(C)C3)ccc1O` as the compound, how does the T/C (dose: 50.0 mg/kg/injection, schedule: Q01DX009 (ip), vehicle: water) read?
A: 103 % of control

Q: And the T/C (dose: 100.0 mg/kg/injection, schedule: Q01DX009 (ip), vehicle: water)?
A: 101 % of control

Q: And the T/C (dose: 200.0 mg/kg/injection, schedule: Q01DX009 (ip), vehicle: water)?
A: 115 % of control

Q: `COc1ccc(NC(=O)Nc2cccc(Cl)c2C)cc1` was tested. Which T/C [4] did it give?
A: 100 % of control

Q: And the T/C [12]?
A: 102 % of control
